Experimental data from patent US5443967A, “DNA encoding the cancer associated SCM recognition factor” (priority 1993, dated 1995).

Assays:
[1] = test system: SCM-responding lymphocytes; assay: SCM-response modifying effect of α-1-PI (SCM test after preincubation and washing); format: cell-based, human; conditions: 2.5 hr α-1-PI + 3X Wash
Description: SCM-responding lymphocytes were isolated from blood samples of a patient with malignant melanoma and from a normal, healthy donor. Half of the lymphocyte suspension from each sample was incubated with 30 nanomoles of α-1-PI per 6×10^6 cells for 2.5 hours at 37° C.; the other half was retained as an untreated control. The cells were then washed three times with PBS. Aliquots from both the untreated controls and the α-1-PI-treated samples were challenged for 40 min with phytohemagglutinin (PHA) or SCM factor. […] The RRSCM was 1.74 in the absence of incubation and 1.68 after incubation.

cathepsin G = biological target: T1, cathepsin G (Homo sapiens, UniProt P08311); assay: Casein-resorufin protease assay: inhibition of cathepsin G by α-1-PI; format: biochemical; conditions: 1 μg Cathepsin G + 6.6 μg α-1-PI; 300 μL
T1 sequence (P08311 21-244 limits assumed): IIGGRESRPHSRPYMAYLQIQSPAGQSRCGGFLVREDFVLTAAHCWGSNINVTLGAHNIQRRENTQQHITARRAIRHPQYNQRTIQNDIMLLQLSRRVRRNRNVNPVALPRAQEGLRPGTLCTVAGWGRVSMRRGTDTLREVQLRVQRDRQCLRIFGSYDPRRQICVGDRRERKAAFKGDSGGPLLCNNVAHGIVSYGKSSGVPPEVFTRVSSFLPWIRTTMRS
Description: (§1) A protease activity using casein-resorufin as a protease substrate was performed to determine the effect of SCM factor on inhibition of the serine proteases trypsin, elastase, and cathepsin G by the serine protease inhibitor α-1-PI. The protocol provided by the manufacturer, Boehringer-Mannheim Biochemica, was followed to assay protease activity. […] However, when SCM factor was added before α-1-PI or simultaneously in a mixture with α-1-PI, it prevented the inhibition of trypsin by α-1-PI. The degree of this effect depended on the quantity of SCM factor added. […] The active portion of the molecule that prevents inhibition of the proteolytic enzymes by α- 1-PI resides within the first seven amino-terminal amino acid residues of the SCM factor. This portion of the molecule is designated "fraction 6" or F6. The effectiveness of equimolar amounts of the peptide F6, as compared to the entire SCM factor molecule (Table 20) in preventing the inhibition of elastase by α-1-PI is shown in Table 22.

elastase = assay: Casein-resorufin protease assay: inhibition of elastase by α-1-PI; format: biochemical; conditions: 3.2 μg Elastase + 6.6 μg α-1-PI
Description: as §1

trypsin = assay: Casein-resorufin protease assay: inhibition of trypsin by α-1-PI; format: biochemical; conditions: 3 μg Trypsin + 6.6 μg α-1-PI; 300 μL
Description: as §1

## α-1-PI: glycoprotein serine protease inhibitor, 55,000 daltons, single chain of 394 residues
[1]; lymphocyte donor Healthy
  RRSCM: 1.68
[1]; lymphocyte donor Malignant Melanoma
  RRSCM: 1.8
Cathepsin G
  Cathepsin G Activity in Casein-Resorufin Assay as % of Untreated Control Enzyme: 20.0%
elastase; 300 μL (Table 20)
  Trypsin Activity in Casein-Resorufin Assay as % of Untreated Control Enzyme: 3.5%
elastase; 300 μL (Table 22)
  Elastase Activity in Casein-Resorufin Assay as % of Untreated Control Enzyme: 3.4%
trypsin
  Trypsin Activity in Casein-Resorufin Assay as % of Untreated Control Enzyme: 13.6%
